Assay results reported in patent US20020111274A1, “1-alkyl-3-[1-(substituted phenyl) benzotriazol-6-yl] uracils” (BASF Aktiengesellschaft, priority 2000, published 2002).

Columns and labels:
Parameters in all cases: scale not given here
ZEAMX Corn, Field [1] = assay: Preemergence herbicidal evaluation, ZEAMX; type: in vivo, Zea mays, L. (Sammel-Bezeichnung); conditions: preemergence
Outline: (§1)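 First, seed is blended with potting soil and sown over roughly an inch of soil per cup. Next, the surface is sprayed with an aqueous acetone solution delivering about 0.013–0.800 kg/ha. Finally, cups are grown in the greenhouse and rated after 4–5 weeks.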

GALAP Galium [2] = assay: Postemergence herbicidal evaluation, GALAP; type: in vivo, Galium aparine; conditions: postemergence spray, rated about two-three weeks after treatment
Outline: (§2)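 Visual injury rating ~2–3 wk post-spray; replicate tests averaged. Two-week-old seedlings; foliar spray at 40 psi; 0.006–0.400 kg ai/ha in 80/20 acetone/water + 1.0% methylated seed oil.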

GALAP Galium [3] = assay: Preemergence herbicidal evaluation, GALAP; type: in vivo, Galium aparine; conditions: preemergence
Outline: as §1

ABUTH Velvetleaf [4] = assay: Preemergence herbicidal evaluation, ABUTH; type: in vivo, Abutilon theophrasti, Medic.; conditions: preemergence
Outline: as §1

[5] = system: TRZAWR Wheat, Winter, cv Riband; assay: Preemergence herbicidal evaluation, TRZAWR; type: in vivo, Triticum aestivum; conditions: preemergence
Outline: as §1

AMBEL Ragweed, Common [6] = assay: Postemergence herbicidal evaluation, AMBEL; type: in vivo, Ambrosia artemisifolia, L.; conditions: postemergence spray, rated about two-three weeks after treatment
Outline: as §2

SETVI Foxtail, Green [7] = assay: Postemergence herbicidal evaluation, SETVI; type: in vivo, Setaria viridis, (L.) Beau; conditions: postemergence spray, rated about two-three weeks after treatment
Outline: as §2

ORYSAT Rice, Tebonnet [8] = assay: Preemergence herbicidal evaluation, ORYSAT; type: in vivo, Oryza sativa, (L.); conditions: preemergence
Outline: as §1

CASOB Sicklepod [9] = assay: Postemergence herbicidal evaluation, CASOB; type: in vivo, Cassia obtusifolia, L.; conditions: postemergence spray, rated about two-three weeks after treatment
Outline: as §2

ABUTH Velvetleaf [10] = assay: Postemergence herbicidal evaluation, ABUTH; type: in vivo, Abutilon theophrasti, Medic.; conditions: postemergence spray, rated about two-three weeks after treatment
Outline: as §2

[11] = system: CHEAL Lambsquarters, Common; assay: Postemergence herbicidal evaluation, CHEAL; type: in vivo, Chenopodium album, L.; conditions: postemergence spray, rated about two-three weeks after treatment
Outline: as §2

ECHOG Barnyardgrass [12] = assay: Postemergence herbicidal evaluation, ECHOG; type: in vivo, Echinochloa crus-galli, (L.) Beau; conditions: postemergence spray, rated about two-three weeks after treatment
Outline: as §2

[13] = system: IPOHE Morningglory, Ivyleaf; assay: Postemergence herbicidal evaluation, IPOHE; type: in vivo, Ipomoea hederacea, (L.) Jacq.; conditions: postemergence spray, rated about two-three weeks after treatment
Outline: as §2

ZEAMX Corn, Field [14] = assay: Postemergence herbicidal evaluation, ZEAMX; type: in vivo, Zea mays, L. (Sammel-Bezeichnung); conditions: postemergence spray, rated about two-three weeks after treatment
Outline: as §2

GLXMAW Soybean, Williams [15] = assay: Postemergence herbicidal evaluation, GLXMAW; type: in vivo, Glycine max, (L.) Merr. cv Williams; conditions: postemergence spray, rated about two-three weeks after treatment
Outline: as §2

[16] = system: IPOHE Morningglory, Ivyleaf; assay: Preemergence herbicidal evaluation, IPOHE; type: in vivo, Ipomoea hederacea, (L.) Jacq.; conditions: preemergence
Outline: as §1

CASOB Sicklepod [17] = assay: Preemergence herbicidal evaluation, CASOB; type: in vivo, Cassia obtusifolia, L.; conditions: preemergence
Outline: as §1

[18] = system: TRZAWR Wheat, Winter, cv Riband; assay: Postemergence herbicidal evaluation, TRZAWR; type: in vivo, Triticum aestivum; conditions: postemergence spray, rated about two-three weeks after treatment
Outline: as §2

[19] = system: CHEAL Lambsquarters, Common; assay: Preemergence herbicidal evaluation, CHEAL; type: in vivo, Chenopodium album, L.; conditions: preemergence
Outline: as §1

GLXMAW Soybean, Williams [20] = assay: Preemergence herbicidal evaluation, GLXMAW; type: in vivo, Glycine max, (L.) Merr. cv Williams; conditions: preemergence
Outline: as §1

AMBEL Ragweed, Common [21] = assay: Preemergence herbicidal evaluation, AMBEL; type: in vivo, Ambrosia artemisifolia, L.; conditions: preemergence
Outline: as §1

ECHOG Barnyardgrass [22] = assay: Preemergence herbicidal evaluation, ECHOG; type: in vivo, Echinochloa crus-galli, (L.) Beau; conditions: preemergence
Outline: as §1

SETVI Foxtail, Green [23] = assay: Preemergence herbicidal evaluation, SETVI; type: in vivo, Setaria viridis, (L.) Beau; conditions: preemergence
Outline: as §1

ORYSAT Rice, Tebonnet [24] = assay: Postemergence herbicidal evaluation, ORYSAT; type: in vivo, Oryza sativa, (L.); conditions: postemergence spray, rated about two-three weeks after treatment
Outline: as §2

COc1ccc(-n2nnc3cc(F)c(-n4c(=O)cc(C(F)(F)F)n(C)c4=O)cc32)c(C)c1 [Example 24]
ZEAMX herbicidal rating (ZEAMX Corn, Field [1]; rate 0.016 kg/ha): 0.0 | ZEAMX herbicidal rating (ZEAMX Corn, Field [1]; rate 0.032 kg/ha): 0.0 | ZEAMX herbicidal rating (ZEAMX Corn, Field [1]; rate 0.062 kg/ha): 4.0 | ZEAMX herbicidal rating (ZEAMX Corn, Field [1]; rate 0.125 kg/ha): 6.0 | Postemergence herbicidal rating GALAP (GALAP Galium [2]; 0.008 kg/ha): 0.0 | Postemergence herbicidal rating GALAP (GALAP Galium [2]; 0.016 kg/ha): 1.0 | Postemergence herbicidal rating GALAP (GALAP Galium [2]; 0.032 kg/ha): 2.0 | Postemergence herbicidal rating GALAP (GALAP Galium [2]; 0.062 kg/ha): 3.0 | GALAP herbicidal rating (GALAP Galium [3]; rate 0.016 kg/ha): 0.0 | GALAP herbicidal rating (GALAP Galium [3]; rate 0.032 kg/ha): 0.0 | GALAP herbicidal rating (GALAP Galium [3]; rate 0.062 kg/ha): 0.0 | ABUTH herbicidal rating (ABUTH Velvetleaf [4]; rate 0.016 kg/ha): 0.0 | ABUTH herbicidal rating (ABUTH Velvetleaf [4]; rate 0.032 kg/ha): 6.0 | ABUTH herbicidal rating (ABUTH Velvetleaf [4]; rate 0.062 kg/ha): 9.0 | ABUTH herbicidal rating (ABUTH Velvetleaf [4]; rate 0.125 kg/ha): 9.0 | TRZAWR herbicidal rating ([5]; rate 0.016 kg/ha): 0.0 | TRZAWR herbicidal rating ([5]; rate 0.032 kg/ha): 0.0 | TRZAWR herbicidal rating ([5]; rate 0.062 kg/ha): 1.0 | TRZAWR herbicidal rating ([5]; rate 0.125 kg/ha): 1.0 | Postemergence herbicidal rating AMBEL (AMBEL Ragweed, Common [6]; 0.008 kg/ha): 0.0 | Postemergence herbicidal rating AMBEL (AMBEL Ragweed, Common [6]; 0.016 kg/ha): 0.0 | Postemergence herbicidal rating AMBEL (AMBEL Ragweed, Common [6]; 0.032 kg/ha): 0.0 | Postemergence herbicidal rating AMBEL (AMBEL Ragweed, Common [6]; 0.062 kg/ha): 2.0 | Postemergence herbicidal rating SETVI (SETVI Foxtail, Green [7]; 0.008 kg/ha): 0.0 | Postemergence herbicidal rating SETVI (SETVI Foxtail, Green [7]; 0.016 kg/ha): 0.0 | Postemergence herbicidal rating SETVI (SETVI Foxtail, Green [7]; 0.032 kg/ha): 0.0 | Postemergence herbicidal rating SETVI (SETVI Foxtail, Green [7]; 0.062 kg/ha): 0.0 | ORYSAT herbicidal rating (ORYSAT Rice, Tebonnet [8]; rate 0.016 kg/ha): 0.0 | ORYSAT herbicidal rating (ORYSAT Rice, Tebonnet [8]; rate 0.032 kg/ha): 0.0 | ORYSAT herbicidal rating (ORYSAT Rice, Tebonnet [8]; rate 0.062 kg/ha): 1.0 | ORYSAT herbicidal rating (ORYSAT Rice, Tebonnet [8]; rate 0.125 kg/ha): 1.0 | Postemergence herbicidal rating CASOB (CASOB Sicklepod [9]; 0.008 kg/ha): 0.0 | Postemergence herbicidal rating CASOB (CASOB Sicklepod [9]; 0.016 kg/ha): 0.0 | Postemergence herbicidal rating CASOB (CASOB Sicklepod [9]; 0.032 kg/ha): 0.0 | Postemergence herbicidal rating CASOB (CASOB Sicklepod [9]; 0.062 kg/ha): 0.0 | Postemergence herbicidal rating ABUTH (ABUTH Velvetleaf [10]; 0.008 kg/ha): 3.0 | Postemergence herbicidal rating ABUTH (ABUTH Velvetleaf [10]; 0.016 kg/ha): 9.0 | Postemergence herbicidal rating ABUTH (ABUTH Velvetleaf [10]; 0.032 kg/ha): 9.0 | Postemergence herbicidal rating ABUTH (ABUTH Velvetleaf [10]; 0.062 kg/ha): 9.0 | Postemergence herbicidal rating CHEAL ([11]; 0.008 kg/ha): 3.0 | Postemergence herbicidal rating CHEAL ([11]; 0.016 kg/ha): 3.0 | Postemergence herbicidal rating CHEAL ([11]; 0.032 kg/ha): 3.0 | Postemergence herbicidal rating CHEAL ([11]; 0.062 kg/ha): 4.0 | Postemergence herbicidal rating ECHCG (ECHOG Barnyardgrass [12]; 0.008 kg/ha): 0.0 | Postemergence herbicidal rating ECHCG (ECHOG Barnyardgrass [12]; 0.016 kg/ha): 0.0 | Postemergence herbicidal rating ECHCG (ECHOG Barnyardgrass [12]; 0.032 kg/ha): 0.0 | Postemergence herbicidal rating ECHCG (ECHOG Barnyardgrass [12]; 0.062 kg/ha): 0.0 | Postemergence herbicidal rating IPOHE ([13]; 0.008 kg/ha): 0.0 | Postemergence herbicidal rating IPOHE ([13]; 0.016 kg/ha): 3.0 | Postemergence herbicidal rating IPOHE ([13]; 0.032 kg/ha): 4.0 | Postemergence herbicidal rating IPOHE ([13]; 0.062 kg/ha): 4.0 | Postemergence herbicidal rating ZEAMX (ZEAMX Corn, Field [14]; 0.008 kg/ha): 3.5 | Postemergence herbicidal rating ZEAMX (ZEAMX Corn, Field [14]; 0.016 kg/ha): 3.5 | Postemergence herbicidal rating ZEAMX (ZEAMX Corn, Field [14]; 0.032 kg/ha): 3.5 | Postemergence herbicidal rating ZEAMX (ZEAMX Corn, Field [14]; 0.062 kg/ha): 4.5 | Postemergence herbicidal rating GLXMAW (GLXMAW Soybean, Williams [15]; 0.008 kg/ha): 3.0 | Postemergence herbicidal rating GLXMAW (GLXMAW Soybean, Williams [15]; 0.016 kg/ha): 3.5 | Postemergence herbicidal rating GLXMAW (GLXMAW Soybean, Williams [15]; 0.032 kg/ha): 4.0 | Postemergence herbicidal rating GLXMAW (GLXMAW Soybean, Williams [15]; 0.062 kg/ha): 4.0 | IPOHE herbicidal rating ([16]; rate 0.016 kg/ha): 0.0 | IPOHE herbicidal rating ([16]; rate 0.032 kg/ha): 0.0 | IPOHE herbicidal rating ([16]; rate 0.062 kg/ha): 0.0 | IPOHE herbicidal rating ([16]; rate 0.125 kg/ha): 0.0 | CASOB herbicidal rating (CASOB Sicklepod [17]; rate 0.016 kg/ha): 0.0 | CASOB herbicidal rating (CASOB Sicklepod [17]; rate 0.032 kg/ha): 0.0 | CASOB herbicidal rating (CASOB Sicklepod [17]; rate 0.062 kg/ha): 0.0 | CASOB herbicidal rating (CASOB Sicklepod [17]; rate 0.125 kg/ha): 0.0 | Postemergence herbicidal rating TRZAWR ([18]; 0.008 kg/ha): 2.5 | Postemergence herbicidal rating TRZAWR ([18]; 0.016 kg/ha): 2.5 | Postemergence herbicidal rating TRZAWR ([18]; 0.032 kg/ha): 2.5 | Postemergence herbicidal rating TRZAWR ([18]; 0.062 kg/ha): 3.5 | CHEAL herbicidal rating ([19]; rate 0.016 kg/ha): 0.0 | CHEAL herbicidal rating ([19]; rate 0.032 kg/ha): 0.0 | CHEAL herbicidal rating ([19]; rate 0.062 kg/ha): 9.0 | CHEAL herbicidal rating ([19]; rate 0.125 kg/ha): 9.0 | GLXMAW herbicidal rating (GLXMAW Soybean, Williams [20]; rate 0.016 kg/ha): 0.0 | GLXMAW herbicidal rating (GLXMAW Soybean, Williams [20]; rate 0.032 kg/ha): 1.0 | GLXMAW herbicidal rating (GLXMAW Soybean, Williams [20]; rate 0.062 kg/ha): 2.0 | GLXMAW herbicidal rating (GLXMAW Soybean, Williams [20]; rate 0.125 kg/ha): 5.0 | AMBEL herbicidal rating (AMBEL Ragweed, Common [21]; rate 0.016 kg/ha): 0.0 | AMBEL herbicidal rating (AMBEL Ragweed, Common [21]; rate 0.032 kg/ha): 0.0 | AMBEL herbicidal rating (AMBEL Ragweed, Common [21]; rate 0.062 kg/ha): 0.0 | AMBEL herbicidal rating (AMBEL Ragweed, Common [21]; rate 0.125 kg/ha): 0.0 | ECHCG herbicidal rating (ECHOG Barnyardgrass [22]; rate 0.016 kg/ha): 0.0 | ECHCG herbicidal rating (ECHOG Barnyardgrass [22]; rate 0.032 kg/ha): 0.0 | ECHCG herbicidal rating (ECHOG Barnyardgrass [22]; rate 0.062 kg/ha): 3.0 | ECHCG herbicidal rating (ECHOG Barnyardgrass [22]; rate 0.125 kg/ha): 7.0 | SETVI herbicidal rating (SETVI Foxtail, Green [23]; rate 0.016 kg/ha): 0.0 | SETVI herbicidal rating (SETVI Foxtail, Green [23]; rate 0.032 kg/ha): 0.0 | SETVI herbicidal rating (SETVI Foxtail, Green [23]; rate 0.062 kg/ha): 9.0 | SETVI herbicidal rating (SETVI Foxtail, Green [23]; rate 0.125 kg/ha): 9.0 | Postemergence herbicidal rating ORYSAT (ORYSAT Rice, Tebonnet [24]; 0.008 kg/ha): 2.0 | Postemergence herbicidal rating ORYSAT (ORYSAT Rice, Tebonnet [24]; 0.016 kg/ha): 2.0 | Postemergence herbicidal rating ORYSAT (ORYSAT Rice, Tebonnet [24]; 0.032 kg/ha): 2.0 | Postemergence herbicidal rating ORYSAT (ORYSAT Rice, Tebonnet [24]; 0.062 kg/ha): 2.5
